The values that follow are results of earlier work, collected in patent US8772507B2, “Imidazole-benzamide anti-cancer agents” (Cytokinetics, Inc., priority 2004, dated 2014).

By GI50 is commonly meant the concentration that inhibits growth by half.

The structures appear in SMILES notation. Where two headings read alike, the source gives them in different places.

The subject of this data set is A549 cells.

For the molecule `O=c1[nH]cc(F)c(=O)[nH]1` [5-fluorouracil], the 50% growth inhibitory concentration (GI50) is 1 µM. Besides, the concentration for 50% growth inhibition (GI50) (no unit printed at this place) is 1 µM.
Regarding `COc1cccc2c1C(=O)c1c(O)c3c(c(O)c1C2=O)C[C@@](O)(C(=O)CO)C[C@@H]3O[C@H]1C[C@H](N)[C@H](O)[C@H](C)O1` [doxorubicin], the 50% growth inhibitory concentration (GI50) was 0.063 µM.
Consider `NC(=O)NO` [hydroxyurea], for which the GI50 was 500 µM.
With `CC(=O)O[C@H]1C(=O)[C@@]2(C)[C@H]([C@H](OC(=O)c3ccccc3)[C@]3(O)C[C@H](OC(=O)[C@H](O)[C@@H](NC(=O)c4ccccc4)c4ccccc4)C(C)=C1C3(C)C)[C@]1(OC(C)=O)CO[C@@H]1C[C@@H]2O` [paclitaxel], the GI50 is 0.004 µM.
